# Laboratory results from ChEMBL document CHEMBL1201862, “PubChem BioAssay data set” (2004).
# Activity calls are given as the source filed them.
# Key:
# [1] = inhibition of ADAM10 peptide cleavage – biochemical, FRET peptide substrate, recombinant human ADAM10, selectivity assay for ADAM17 exosite inhibitor project, dose response (AID 743259);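 also: ADAM10 enzyme cleaving a FRET peptide substrate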
# [2] = molecular target: Disintegrin and metalloproteinase domain-containing protein 17 (Homo sapiens, UniProt P78536); test: exosite inhibitors of ADAM17, dose response, biochemical (AID 743260)
# CAAX prenyl protease 2 [3] = molecular target: T1, CAAX prenyl protease 2 (Homo sapiens, UniProt Q9Y256); test: inhibition of Ras-converting CAAX protease Rce1 – biochemical, yeast membranes, quenched-peptide fluorescence, cherry-pick, dose response (AID 588849)
# T1 sequence (Q9Y256 whole entry): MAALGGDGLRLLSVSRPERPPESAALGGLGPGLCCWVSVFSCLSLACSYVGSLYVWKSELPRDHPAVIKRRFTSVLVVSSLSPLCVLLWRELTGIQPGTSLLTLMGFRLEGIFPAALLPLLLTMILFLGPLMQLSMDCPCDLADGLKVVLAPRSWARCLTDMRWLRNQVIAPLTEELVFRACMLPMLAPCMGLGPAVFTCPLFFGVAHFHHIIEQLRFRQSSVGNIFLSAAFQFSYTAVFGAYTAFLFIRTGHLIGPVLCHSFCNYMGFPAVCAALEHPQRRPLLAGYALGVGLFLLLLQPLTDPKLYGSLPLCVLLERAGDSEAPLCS
# CAAX prenyl protease 2 [4] = molecular target: CAAX prenyl protease 2 (Saccharomyces cerevisiae S288c, UniProt Q03530); assay type: biochemical
# [5] = viability of uninfected HEp-2 cells – cell-based, HTS, cytotoxicity control for RSV inhibitor project, dose response (AID 2410); assay type: functional; conditions: human respiratory syncytial virus
# [6] = molecular target: DNA dC->dU-editing enzyme APOBEC-3A (Homo sapiens, UniProt P31941); test: A3A deaminase inhibition for selectivity – biochemical, dose response (AID 504722); assay type: functional
# [7] = molecular target: DNA dC->dU-editing enzyme APOBEC-3G (Homo sapiens, UniProt Q9HC16); test: Dose Response confirmation of small molecule APOBEC3G DNA Deaminase Inhibitors via a fluorescence-based single-stranded DNA deaminase assay. [Related pubchem assays (depositor defined):AID493012, AID493028]; assay type: functional
# [8] = molecular target: T2, Kappa-type opioid receptor (Homo sapiens, UniProt P41145); assay type: functional
# [9] = molecular target: T2, Kappa-type opioid receptor; assay type: functional; remark: listed apart in the source
# Streptococcus = test: GAS UMAA2166 growth inhibition – luminescence, BacTiterGlo, counter-screen for streptokinase expression inhibitor project, dose response (AID 1915); assay type: functional, organism-based;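 also: potency for reduction of bacterial viability or growth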
# INS1 = test: INS-1E survival protection against cytokine death – cell-based, luminescence, retest, dose response (AID 449756); assay type: functional; conditions: Rattus norvegicus;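 also: cell death triggered by IL-1 beta plus TNF-alpha plus IFN-gamma mixture; protective hits raise ATP signal compared with cytokine alone wells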
# [10] = luciferase reporter signal suppression in cells – H4 neuroglioma cells, luminescence, dose response (AID 1990); assay type: functional, cell-based
# [11] = alpha-synuclein stem-loop luciferase translation blockers – H4 neuroglioma cells, luminescence, confirmation (AID 1988); assay type: functional, cell-based
# BJ [12] = test: growth inhibition of engineered Ras-driven BJ cells – cell-based, alamar blue fluorescence, cherrypicked samples, dose response (AID 2631); assay type: functional; conditions: Homo sapiens;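 also: confirmatory dose-response assay in RAS-dependent BJ fibroblasts engineered with TERT, LT and ST, with cytotoxicity read by fluorescence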
# Beta-galactosidase [13] = molecular target: T3, Beta-galactosidase (Escherichia coli, UniProt Q8VNN2); assay type: functional
# cells [14] = assay type: functional, cell-based
# Vero [15] = test: cells; assay type: functional; conditions: Chlorocebus sabaeus
# Vero [16] = test: cells; assay type: functional, cell-based; conditions: Chlorocebus sabaeus
# [17] = system: Streptococcus sp. 'group A'; test: Streptococcus pyogenes SK(-)GAS viability under kanamycin – luminescence, BacTiterGlo, confirmation, counter-screen for streptokinase expression inhibitor project, dose response (AID 1900); assay type: functional, organism-based
# BJ [18] = test: cells; assay type: functional, cell-based; conditions: Homo sapiens
# [19] = Luminescence Cell-Based Dose Response HTS to Identify Inhibitors of 5'UTR Stem-Loop Driven Prion Protein mRNA Translation in H4 Neuroglioblastoma Cells. [Related pubchem assays: 1827 (Project Summary), 1813 (Primary HTS)]; assay type: functional
# [20] = DRD fibroblast viability loss – cell-based, non-viral oncogenic, luminescence, dose response (AID 1934); assay type: functional; conditions: Homo sapiens
# BJ [21] = test: BJ-TERT fibroblast viability loss – cell-based, RAS-independent, luminescence, dose response (AID 1933); assay type: functional; conditions: Homo sapiens
# BJ [22] = test: BJ-TERT-LT-ST fibroblast viability loss – cell-based, RAS-independent, luminescence, dose response (AID 1935); assay type: functional; conditions: Homo sapiens;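 also: BJ fibroblasts immortalized with TERT plus LT and ST oncogenes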
# cells [23] = assay type: functional, cell-based; remark: listed apart in the source
# [24] = molecular target: Nucleotide-binding oligomerization domain-containing protein 2 (Homo sapiens, UniProt Q9HC29); test: PubChem AID 2334; assay type: functional
# [25] = molecular target: T4, Nucleotide-binding oligomerization domain-containing protein 1 (Homo sapiens, UniProt Q9Y239); test: blockers of NOD1 pathway activity – revised, SAR follow-up (AID 2333); assay type: functional
# T4 sequence (Q9Y239 whole entry): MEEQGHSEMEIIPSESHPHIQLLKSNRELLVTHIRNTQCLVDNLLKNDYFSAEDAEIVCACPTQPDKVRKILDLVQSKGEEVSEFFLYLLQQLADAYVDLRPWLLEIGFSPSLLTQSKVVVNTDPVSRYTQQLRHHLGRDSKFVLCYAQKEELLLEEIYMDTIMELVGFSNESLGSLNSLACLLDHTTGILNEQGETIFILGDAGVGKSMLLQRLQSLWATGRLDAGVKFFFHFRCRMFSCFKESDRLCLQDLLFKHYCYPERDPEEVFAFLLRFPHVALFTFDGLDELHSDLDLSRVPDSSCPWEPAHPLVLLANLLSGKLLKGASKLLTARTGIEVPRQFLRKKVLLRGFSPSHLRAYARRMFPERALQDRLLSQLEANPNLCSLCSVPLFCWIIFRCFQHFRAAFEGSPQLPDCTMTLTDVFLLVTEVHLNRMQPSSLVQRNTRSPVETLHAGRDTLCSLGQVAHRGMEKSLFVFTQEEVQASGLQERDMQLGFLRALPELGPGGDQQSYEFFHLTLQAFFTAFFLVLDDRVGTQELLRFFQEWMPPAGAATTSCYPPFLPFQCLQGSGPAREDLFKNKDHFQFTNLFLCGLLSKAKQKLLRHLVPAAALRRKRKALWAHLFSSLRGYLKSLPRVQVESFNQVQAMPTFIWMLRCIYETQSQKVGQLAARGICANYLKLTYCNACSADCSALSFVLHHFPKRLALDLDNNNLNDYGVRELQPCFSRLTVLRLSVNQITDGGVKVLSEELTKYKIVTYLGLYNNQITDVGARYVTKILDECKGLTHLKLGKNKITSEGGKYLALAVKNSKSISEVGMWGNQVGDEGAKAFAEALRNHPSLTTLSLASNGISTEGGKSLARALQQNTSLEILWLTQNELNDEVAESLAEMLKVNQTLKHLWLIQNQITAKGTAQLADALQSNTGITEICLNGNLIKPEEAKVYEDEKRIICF
# HEK293 = test: cells; conditions: Homo sapiens;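 also: cells exposed to compound for 14 hours overnight before viability readout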
# Tumor necrosis factor = Tumor necrosis factor (Homo sapiens, UniProt P01375); test: analog potency on TNFa NF-kB signaling – cell-based, revised, SAR follow-up (AID 2337); assay type: functional
# Streptokinase A = molecular target: T5, Streptokinase A (Streptococcus pyogenes serotype M1, UniProt P10520); test: viability-normalized secreted streptokinase activity reduction – plasminogen activation absorbance, OD405, dose response (AID 1914); assay type: functional, Streptococcus pyogenes M1 GAS;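 also: secreted streptokinase activity via plasminogen activation per viability signal from cell pellet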
# T5 sequence (P10520 whole entry): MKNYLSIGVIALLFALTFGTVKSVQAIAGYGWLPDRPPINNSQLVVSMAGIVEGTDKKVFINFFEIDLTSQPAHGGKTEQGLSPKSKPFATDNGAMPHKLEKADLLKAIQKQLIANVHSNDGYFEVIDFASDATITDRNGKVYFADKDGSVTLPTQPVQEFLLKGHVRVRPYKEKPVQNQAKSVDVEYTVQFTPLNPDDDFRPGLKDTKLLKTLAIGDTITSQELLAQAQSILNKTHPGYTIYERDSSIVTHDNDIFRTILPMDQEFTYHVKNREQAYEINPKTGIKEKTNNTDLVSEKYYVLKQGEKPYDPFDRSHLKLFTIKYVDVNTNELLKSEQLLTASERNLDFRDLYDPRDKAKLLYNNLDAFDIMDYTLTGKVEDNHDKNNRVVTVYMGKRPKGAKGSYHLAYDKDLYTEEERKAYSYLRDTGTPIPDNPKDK
# Genome polyprotein = Genome polyprotein (dengue virus type 2, UniProt P29990); test: flavivirus cap methylation enzyme inhibition – biochemical, confirmation dose response, primary screen (AID 588689); assay type: functional
# Beta-galactosidase [26] = molecular target: T3, Beta-galactosidase; test: detection-enzyme interference by beta-gal modulators – biochemical, E. coli enzyme, set 3, artefact control for CCR6 antagonist project, dose response (AID 504712); assay type: functional
# [27] = cAMP pathway inhibition in counterscreen cell line – TR-FRET cAMP detection, counter-screen for MC4R biased antagonist project, dose response (AID 602305); assay type: functional, cell-based;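 also: U2OS cells stimulated with forskolin near its EC80 as the cAMP inducer; potency is for inhibition of forskolin-stimulated cAMP signaling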
# [28] = loss of viability in HepG2 cells – cell-based, CellTiter-Glo, cherry-picked, cytotoxicity control for Shn3 inhibitor project, dose response (AID 624134); assay type: functional
# Melanocortin receptor 4 = Melanocortin receptor 4 (Homo sapiens, UniProt P32245); test: inhibitors of MC4R cAMP signaling – cell-based, TR-FRET, biased antagonists, dose response (AID 602298); assay type: functional;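 also: antagonist potency against agonist-stimulated cAMP production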
# [29] = reduced cellular PGC1a acetyl-lysine signal – cell-based, cherry-picked samples, dose response (AID 720514); assay type: functional;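 also: potency may reflect raised or lowered acetylation signal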
# [30] = non-specific 3'UTR reporter inhibition in Clone20-Shn3RL – cell-based, Renilla luciferase, cherry-picked, counter-screen for Shn3 inhibitor project, dose response (AID 624133); assay type: functional
# [31] = molecular target: Photoreceptor-specific nuclear receptor (Homo sapiens, UniProt Q9Y5X4); assay type: functional, cell-based;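 also: CHO-S cells with Gal4-NCOR and VP16-NR2E3 two-hybrid luciferase reporter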
# [32] = reduction of Shn3 3'UTR-driven luciferase in osteoblasts – cell-based, Clone20 osteoblasts, firefly luciferase, cherry-picked, dose response (AID 624132); assay type: functional;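 also: firefly luciferase luminescence from reporter carrying the Shn3 3'UTR in osteoblasts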
# [33] = molecular target: T6, Tyrosine-protein phosphatase non-receptor type 7 (Homo sapiens, UniProt P35236); test: redox-active compounds inhibiting HePTP phosphatase – biochemical, fluorescence, mechanism study (AID 2068); assay type: functional
# T6 sequence (P35236 whole entry): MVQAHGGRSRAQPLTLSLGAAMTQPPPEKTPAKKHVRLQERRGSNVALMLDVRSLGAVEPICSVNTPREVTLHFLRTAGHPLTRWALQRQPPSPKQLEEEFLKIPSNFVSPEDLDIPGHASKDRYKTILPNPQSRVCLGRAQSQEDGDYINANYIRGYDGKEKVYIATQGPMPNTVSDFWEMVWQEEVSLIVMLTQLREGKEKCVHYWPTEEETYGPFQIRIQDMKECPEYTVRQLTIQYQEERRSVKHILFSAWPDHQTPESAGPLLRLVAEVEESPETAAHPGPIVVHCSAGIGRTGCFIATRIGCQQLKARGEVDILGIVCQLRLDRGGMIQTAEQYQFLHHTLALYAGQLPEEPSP
# [34] = molecular target: G-protein coupled receptor 55 (Homo sapiens, UniProt Q9Y2T6); test: selective activators of receptor GPR55 – imaging, U2OS cells, beta-arrestin-GFP redistribution, primary screen (AID 1961); assay type: functional
# Sequence of G-protein coupled receptor 55 (Q9Y2T6 whole entry): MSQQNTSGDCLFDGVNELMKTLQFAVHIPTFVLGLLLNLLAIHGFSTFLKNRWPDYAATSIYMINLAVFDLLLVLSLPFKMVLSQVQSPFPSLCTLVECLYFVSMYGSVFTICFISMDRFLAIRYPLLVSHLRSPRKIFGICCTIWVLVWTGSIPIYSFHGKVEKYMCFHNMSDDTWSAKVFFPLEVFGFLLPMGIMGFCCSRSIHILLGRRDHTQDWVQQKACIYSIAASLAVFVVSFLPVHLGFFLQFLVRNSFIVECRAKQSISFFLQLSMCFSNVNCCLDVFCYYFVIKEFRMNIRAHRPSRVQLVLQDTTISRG
# T3 sequence (Q8VNN2 whole entry): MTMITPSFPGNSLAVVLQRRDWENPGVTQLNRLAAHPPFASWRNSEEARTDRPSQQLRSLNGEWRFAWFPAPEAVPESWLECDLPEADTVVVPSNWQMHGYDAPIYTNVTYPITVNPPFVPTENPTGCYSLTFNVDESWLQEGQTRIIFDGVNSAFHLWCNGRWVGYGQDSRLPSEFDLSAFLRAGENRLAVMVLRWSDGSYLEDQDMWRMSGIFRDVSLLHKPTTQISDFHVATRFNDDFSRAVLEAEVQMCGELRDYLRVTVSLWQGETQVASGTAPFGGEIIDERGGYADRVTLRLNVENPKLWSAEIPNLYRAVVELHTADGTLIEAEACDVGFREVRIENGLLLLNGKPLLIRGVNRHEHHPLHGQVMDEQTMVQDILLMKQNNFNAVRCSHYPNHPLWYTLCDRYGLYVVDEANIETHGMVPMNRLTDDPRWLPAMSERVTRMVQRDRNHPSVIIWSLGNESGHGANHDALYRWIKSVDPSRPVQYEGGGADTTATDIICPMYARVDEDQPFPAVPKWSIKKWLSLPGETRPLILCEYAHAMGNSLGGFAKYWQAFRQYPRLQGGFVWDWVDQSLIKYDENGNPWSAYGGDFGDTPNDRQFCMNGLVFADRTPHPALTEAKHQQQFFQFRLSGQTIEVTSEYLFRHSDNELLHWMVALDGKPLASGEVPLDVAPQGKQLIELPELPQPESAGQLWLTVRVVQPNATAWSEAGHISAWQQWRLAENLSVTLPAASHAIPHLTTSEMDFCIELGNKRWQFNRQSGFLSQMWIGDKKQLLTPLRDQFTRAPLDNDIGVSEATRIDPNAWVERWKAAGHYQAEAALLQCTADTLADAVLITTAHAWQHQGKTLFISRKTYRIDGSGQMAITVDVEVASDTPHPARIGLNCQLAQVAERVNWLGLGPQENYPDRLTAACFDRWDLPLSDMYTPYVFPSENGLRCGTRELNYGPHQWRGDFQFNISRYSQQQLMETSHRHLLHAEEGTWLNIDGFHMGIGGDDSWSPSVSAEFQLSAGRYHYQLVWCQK
# Sequence of DNA dC->dU-editing enzyme APOBEC-3A (P31941 whole entry): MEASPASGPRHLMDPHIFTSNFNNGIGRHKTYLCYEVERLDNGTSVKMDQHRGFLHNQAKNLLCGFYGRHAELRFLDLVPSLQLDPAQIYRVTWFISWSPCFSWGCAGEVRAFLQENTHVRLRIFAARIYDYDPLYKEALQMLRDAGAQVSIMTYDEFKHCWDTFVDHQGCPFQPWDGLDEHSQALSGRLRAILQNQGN
# Sequence of DNA dC->dU-editing enzyme APOBEC-3G (Q9HC16 whole entry): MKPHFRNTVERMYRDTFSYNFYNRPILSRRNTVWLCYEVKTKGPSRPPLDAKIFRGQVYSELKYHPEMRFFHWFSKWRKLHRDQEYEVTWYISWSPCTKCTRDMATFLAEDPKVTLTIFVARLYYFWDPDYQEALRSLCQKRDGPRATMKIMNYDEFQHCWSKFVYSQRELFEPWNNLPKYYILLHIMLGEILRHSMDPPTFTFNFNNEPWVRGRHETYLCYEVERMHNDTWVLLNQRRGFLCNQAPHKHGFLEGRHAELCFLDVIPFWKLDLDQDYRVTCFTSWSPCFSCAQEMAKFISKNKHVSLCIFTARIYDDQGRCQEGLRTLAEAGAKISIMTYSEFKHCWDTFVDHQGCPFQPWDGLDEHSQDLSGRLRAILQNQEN
# Sequence of Nucleotide-binding oligomerization domain-containing protein 2 (Q9HC29 whole entry, the tested form may be a part): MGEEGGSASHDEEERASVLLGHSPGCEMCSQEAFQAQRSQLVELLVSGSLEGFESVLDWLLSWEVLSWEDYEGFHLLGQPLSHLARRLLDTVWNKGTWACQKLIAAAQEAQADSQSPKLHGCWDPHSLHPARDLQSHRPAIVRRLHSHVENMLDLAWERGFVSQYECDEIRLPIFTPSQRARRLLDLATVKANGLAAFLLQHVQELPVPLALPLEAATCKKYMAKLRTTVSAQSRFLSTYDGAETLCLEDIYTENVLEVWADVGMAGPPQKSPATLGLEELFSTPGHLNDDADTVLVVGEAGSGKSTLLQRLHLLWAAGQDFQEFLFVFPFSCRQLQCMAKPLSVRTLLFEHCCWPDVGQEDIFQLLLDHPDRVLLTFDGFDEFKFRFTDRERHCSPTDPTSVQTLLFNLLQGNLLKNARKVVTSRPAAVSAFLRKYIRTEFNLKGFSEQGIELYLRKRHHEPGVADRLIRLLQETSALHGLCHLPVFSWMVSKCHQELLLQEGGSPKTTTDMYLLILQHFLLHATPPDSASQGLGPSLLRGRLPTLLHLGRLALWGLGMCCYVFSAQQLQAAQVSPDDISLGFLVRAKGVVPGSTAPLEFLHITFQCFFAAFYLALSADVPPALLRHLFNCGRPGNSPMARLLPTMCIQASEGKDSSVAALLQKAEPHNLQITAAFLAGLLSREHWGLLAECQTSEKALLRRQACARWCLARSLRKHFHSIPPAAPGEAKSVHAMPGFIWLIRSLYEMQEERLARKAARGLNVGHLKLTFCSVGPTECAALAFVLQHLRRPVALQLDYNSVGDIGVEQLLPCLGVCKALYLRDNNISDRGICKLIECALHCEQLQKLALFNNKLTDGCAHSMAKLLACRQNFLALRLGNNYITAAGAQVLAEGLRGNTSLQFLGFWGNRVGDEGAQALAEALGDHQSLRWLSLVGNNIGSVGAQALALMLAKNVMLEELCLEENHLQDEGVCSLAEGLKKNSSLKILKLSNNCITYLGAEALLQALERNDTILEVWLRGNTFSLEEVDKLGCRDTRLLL
# Sequence of Tumor necrosis factor (P01375 whole entry): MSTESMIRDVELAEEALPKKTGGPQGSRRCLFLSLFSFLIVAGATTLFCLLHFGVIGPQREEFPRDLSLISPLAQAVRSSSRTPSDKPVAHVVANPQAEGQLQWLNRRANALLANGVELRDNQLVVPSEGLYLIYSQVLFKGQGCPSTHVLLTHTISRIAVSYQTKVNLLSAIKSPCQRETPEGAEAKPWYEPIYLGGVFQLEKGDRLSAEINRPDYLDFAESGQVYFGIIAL
# T2 sequence (P41145 whole entry): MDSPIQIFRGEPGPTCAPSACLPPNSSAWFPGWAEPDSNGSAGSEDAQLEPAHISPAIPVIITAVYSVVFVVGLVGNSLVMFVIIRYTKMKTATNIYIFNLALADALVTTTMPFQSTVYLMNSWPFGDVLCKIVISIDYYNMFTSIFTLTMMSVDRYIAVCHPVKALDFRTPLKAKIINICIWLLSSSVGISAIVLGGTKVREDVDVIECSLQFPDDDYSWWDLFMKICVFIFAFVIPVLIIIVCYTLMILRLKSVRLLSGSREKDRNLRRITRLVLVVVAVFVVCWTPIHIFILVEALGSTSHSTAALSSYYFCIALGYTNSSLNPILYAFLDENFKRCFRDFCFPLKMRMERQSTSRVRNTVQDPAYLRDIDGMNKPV
# Sequence of CAAX prenyl protease 2 (Saccharomyces cerevisiae S288c, UniProt Q03530) (Q03530 whole entry): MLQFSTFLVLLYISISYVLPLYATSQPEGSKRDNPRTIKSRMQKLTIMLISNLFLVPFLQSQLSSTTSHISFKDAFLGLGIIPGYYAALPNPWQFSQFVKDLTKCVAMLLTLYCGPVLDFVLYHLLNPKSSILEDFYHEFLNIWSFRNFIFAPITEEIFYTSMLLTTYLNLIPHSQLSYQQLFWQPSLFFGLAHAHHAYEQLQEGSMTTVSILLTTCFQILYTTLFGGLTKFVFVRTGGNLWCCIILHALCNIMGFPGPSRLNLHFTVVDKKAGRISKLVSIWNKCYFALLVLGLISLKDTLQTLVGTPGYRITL
# Sequence of Photoreceptor-specific nuclear receptor (Q9Y5X4 whole entry, the tested form may be a part): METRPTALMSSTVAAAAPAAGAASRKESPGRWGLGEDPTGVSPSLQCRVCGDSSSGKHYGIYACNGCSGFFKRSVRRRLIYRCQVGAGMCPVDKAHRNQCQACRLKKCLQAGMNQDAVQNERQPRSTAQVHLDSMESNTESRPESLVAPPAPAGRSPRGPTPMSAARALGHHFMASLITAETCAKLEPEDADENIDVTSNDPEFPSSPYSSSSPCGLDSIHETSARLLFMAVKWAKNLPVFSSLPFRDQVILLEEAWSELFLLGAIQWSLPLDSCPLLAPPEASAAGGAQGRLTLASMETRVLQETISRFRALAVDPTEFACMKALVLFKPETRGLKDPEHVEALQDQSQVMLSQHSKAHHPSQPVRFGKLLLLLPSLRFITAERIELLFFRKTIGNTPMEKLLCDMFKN
# Sequence of Melanocortin receptor 4 (P32245 whole entry): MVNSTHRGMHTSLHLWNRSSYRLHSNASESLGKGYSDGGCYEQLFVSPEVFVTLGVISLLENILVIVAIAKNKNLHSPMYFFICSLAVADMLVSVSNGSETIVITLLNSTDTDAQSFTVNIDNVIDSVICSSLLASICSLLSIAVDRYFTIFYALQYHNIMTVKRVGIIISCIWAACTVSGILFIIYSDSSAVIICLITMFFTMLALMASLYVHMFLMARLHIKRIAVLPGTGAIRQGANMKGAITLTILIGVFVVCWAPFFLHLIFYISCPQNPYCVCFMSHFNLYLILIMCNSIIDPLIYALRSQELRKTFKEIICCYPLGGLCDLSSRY
compound,measurement,setting,value
CCO[C@H]1OC(C(=O)Nc2ccccc2)=C[C@@H](c2csc3ccccc23)[C@@H]1CCCO,IC50,[1],11.2 µM (inactive)
same,IC50,[2],> 69.5 µM (inactive)
same,AC50,CAAX prenyl protease 2 [3],0.183 µM (active)
same,AC50,CAAX prenyl protease 2 [4],17.5 µM (active)
same,CC50,[5],18.7 µM (active)
CCOc1ccc(N)c(SSc2cc(OCC)ccc2N)c1,IC50,[6],> 100 µM (inactive)
same,IC50,[7],17.1 µM (active)
Cc1ccccc1N=Nc1ccc(O)c2ncccc12,IC50,[8],4.11 µM (active)
same,IC50,[9],> 32 µM
same,EC50,Streptococcus,0.437 µM (active)
same,AC50,INS1,1.65 µM (active)
same,EC50,[10],5.81 µM (active)
same,EC50,[11],2.03 µM (active)
same,EC50,BJ [12],0.677 µM (active)
same,EC50,Beta-galactosidase [13],30.1 µM (active)
same,EC50,cells [14],7.93 µM (active)
same,CC50,Vero [15],5.63 µM (active)
same,IC50,Vero [16],> 25 µM (active)
same,EC50,[17],< 0.06 µM (active)
same,EC50,BJ [18],15.1 µM (inconclusive)
same,EC50,[19],2.89 µM (active)
same,EC50,[20],12.7 µM (active)
same,EC50,BJ [21],10.4 µM (inconclusive)
same,EC50,BJ [22],6.64 µM (inconclusive)
same,EC50,cells [23],46.8 µM (active)
N#C/C(=C(/O)COC(=O)CSc1ccc2ccccc2c1)c1nc2ccccc2[nH]1,IC50,[24],> 20 µM (inactive)
same,IC50,[25],> 20 µM (inactive)
same,IC50,HEK293,> 20 µM (inactive)
same,IC50,Tumor necrosis factor,> 20 µM (inactive)
N#Cc1c(-c2ccccc2)nc(SCc2cccc(C(F)(F)F)c2)[nH]c1=O,IC50,[24],7.5 µM (active)
same,IC50,[25],6.48 µM (active)
same,EC50,Streptokinase A,6.34 µM (active)
same,IC50,Genome polyprotein,42.7 µM (active)
same,IC50,Tumor necrosis factor,8.05 µM (active)
O=S(=O)(/C(=C\c1ccc(C(F)(F)F)cc1)c1nc2ccccc2[nH]1)c1ccccc1,IC50,Beta-galactosidase [26],> 66.6 µM (inactive)
same,IC50,[27],> 64.6 µM (inactive)
same,AC50,[28],6.49 µM (active)
same,IC50,Melanocortin receptor 4,9.39 µM (active)
same,AC50,[29],3.11 µM (active)
same,AC50,[30],< 0.5 µM (active)
same,IC50,[31],4.42 µM (active)
same,AC50,[32],1.85 µM (active)
CCN(CC)C(=O)C1CCCN(C(=O)Nc2ccc3nc(-c4ccco4)c(-c4ccco4)nc3c2)C1 (stereo unspecified),IC50,[33],2.66 µM (active)
CCCN(CCC)Cc1c(C(=O)N/N=C/c2c[nH]c3ccccc23)nnn1-c1nonc1N,EC50,[34],0.905 µM (active)
CC(/C=N/n1c(S)nnc1-c1cc(C)[nH]n1)=C\c1ccco1,IC50,[6],> 100 µM (inactive)
same,IC50,[7],2.47 µM (active)
